Conditions: 298.15 K

O=C(O)c1ccc(Cl)c(Cl)c1
Conditions	solubility (mole fraction)
in 1,4-dioxane	0.0493
in 2-butoxyethanol	0.0399
in 2-ethoxyethanol	0.0445
in 2-isopropoxyethanol	0.0483
in 2-methyl-1-butanol	0.0183
in 2-methyl-1-pentanol	0.0239
in 2-pentanol	0.0248
in 2-propoxyethanol	0.0468
in 3-methoxy-1-butanol	0.0503
in 4-methyl-2-pentanol	0.0255
in MTBE	0.0358
in THF	0.101
in dibutyl ether	0.00969
in diethyl ether	0.0308
in diisopropyl ether	0.0126
in ethanol	0.0173
in ethyl acetate	0.0164
in isobutanol	0.0139
in isopentanol	0.0216
in isopropanol	0.0177
in methyl acetate	0.0119
in methyl butyrate	0.0143
in n-butanol	0.0203
in n-butyl acetate	0.0206
in n-heptanol	0.0251
in n-hexanol	0.0238
in n-octanol	0.0242
in n-pentanol	0.0218
in n-pentyl acetate	0.0216
in n-propanol	0.0185
in n-propyl acetate	0.0176
in sec-butanol	0.019
in tert-butanol	0.0345

From BigSolDB 2.1
